Common to all, as to format: functional, organism-based
For experiment [1], the system named is Saccharomyces cerevisiae. Nature of the experiment: Effect on SOD2 gene expression in Saccharomyces cerevisiae K6001 at 10 uM by RT-PCR.
Experiment [2] relates to Saccharomyces cerevisiae. Description: Effect on SOD1 gene expression in Saccharomyces cerevisiae K6001 at 10 uM by RT-PCR.
In experiment [3] the test system is Saccharomyces cerevisiae. Description: Antiaging effect in Saccharomyces cerevisiae K6001 assessed as extension of replicative life span at 10 uM after 2 days.
The subject of experiment [4] is Saccharomyces cerevisiae. Description: Effect on SIRT1 expression in Saccharomyces cerevisiae K6001 by SIRT1/Sir2 deacetylase fluorometric assay.
Experiment [5] has as its system Saccharomyces cerevisiae. Description: Antiaging effect in Saccharomyces cerevisiae K6001 expressing uth1 mutant assessed as extension of replicative life span after 2 days.
The test system of experiment [6] is Saccharomyces cerevisiae. Description: Antiaging effect in Saccharomyces cerevisiae K6001 expressing skn7 mutant assessed as extension of replicative life span after 2 days.
Experiment [7] concerns Saccharomyces cerevisiae. Nature of the experiment: Antiaging effect in Saccharomyces cerevisiae K6001 assessed as extension of replicative life span after 2 days.

Molecules are shown by their SMILES. Active and inactive are the calls of the source. The calls are words filed in the database; no cut-off is given here.

As to `CC(C)[C@@H](C)/C=C/[C@@H](C)[C@H]1C[C@H](O)C2=C3C=CC4=CC(=O)CC[C@]4(C)C3CC[C@@]21C` (some centres undefined), the outcome in the experiment with Saccharomyces cerevisiae [1], in the experiment with Saccharomyces cerevisiae [2], in the experiment with Saccharomyces cerevisiae [4], in the experiment with Saccharomyces cerevisiae [5] and with Saccharomyces cerevisiae [6] was inactive. Moreover, the result with Saccharomyces cerevisiae [3] was Active.

Turning to `Oc1ccc(/C=C/c2cc(O)cc(O)c2)cc1`, the Activity entry with Saccharomyces cerevisiae [7] was “Dose-dependent effect”. In addition, the result in the experiment on Saccharomyces cerevisiae [3] was Active.

Consider `CC(C)[C@@H](C)/C=C/[C@@H](C)[C@H]1C[C@@H](O)C2=C3C=CC4=CC(=O)CC[C@]4(C)C3CC[C@@]21C` (some centres undefined), for which the outcome in the experiment on Saccharomyces cerevisiae [1], with Saccharomyces cerevisiae [2], in the experiment on Saccharomyces cerevisiae [4], with Saccharomyces cerevisiae [5] and in the experiment on Saccharomyces cerevisiae [6] was inactive. Further, in the experiment on Saccharomyces cerevisiae [3], the result was Active.

Source of the values: ChEMBL document CHEMBL1156879, “Ganodermasides A and B, two novel anti-aging ergosterols from spores of a medicinal mushroom Ganoderma lucidum on yeast via UTH1 gene” (Bioorg Med Chem, 2010).
